The text below walks through data of patent US6066656A, “2,5-diamino-3,4-disubstituted-1,6-diphenylhexane isosteres comprising benzamide, sulfonamide and anthranilamide subunits and methods of using same” (The United States of America as represented by the …, priority 1998, dated 2000).

What all share (type): biochemical
For assay [1], the target named is T1, HIV-1 protease (wild-type, WT) (Human immunodeficiency virus type 1 group M subtype B, UniProt P04585).
T1 construct: purified HIV-1 protease (wild-type, WT)
As to the kind of experiment: Inhibition of purified wild-type HIV-1 protease (fluorogenic substrate cleavage), Ki and % inhibition. As for the experimental part:
(§1) The inhibition constants (Ki) for the compounds of the above examples were determined using purified HIV-1 protease (wild-type, WT) (Tables I, II, IV and V) and R8Q and V82I mutant HIV-1 proteases (Table III). Ki is an inhibition constant of a given compound as derived by enzyme kinetics. A low Ki represents a high affinity of the compound for the enzyme, i.e., tight binding or low dissociation. Inhibition of the cleavage was assayed using a fluorogenic substrate available from Molecular Probes, Inc., Eugene, Oreg., and described in Kageyama et al., Antimicrob. Agents. Chemother., 37, 272 (1993), and a fluorogenic substrate available from Bachem California, Torrance, Calif., and described in Kageyama et al. (1993), supra. The inhibitory potencies of these compounds are set forth in Tables I-V. Percent inhibition is the percentage inhibition of an enzyme's activity by a given compound at a given concentration.

Assay [2] deals with T2, V82I mutant HIV-1 protease (Human immunodeficiency virus type 1 group M subtype B, UniProt P04585, V570I).
T2 construct: R8Q and V82I mutant HIV-1 proteases
As to the kind of experiment: Inhibition of V82I mutant HIV-1 protease (fluorogenic substrate cleavage). Conditions: Table III. As for the experimental part: as §1

For assay [3], the target named is T3, R8Q mutant HIV-1 protease (Human immunodeficiency virus type 1 group M subtype B, UniProt P04585, R496Q).
T3 construct: R8Q and V82I mutant HIV-1 proteases
The assay can be described thus: Inhibition of R8Q mutant HIV-1 protease (fluorogenic substrate cleavage). Conditions: Table III. The procedure:
as §1

Setting [4] is: Table III, wild-type HIV protease, read-out: Ki WT.
Setting [5] is: Table V, spread wrapped on the next line: DN-1 ± 0.6, DN-4 ± 0.09, DN-5 ± 1.3, DN-6B ± 0.3, DN-10 ± 0.007, DN-11 ± 0.1, read-out: Ki.

Read-outs that look alike come from different tables or passages of the source.

For orientation: Ki means a measure of affinity in units of concentration, obtained from inhibition or displacement.

For the compound `O=C(Cc1ccccc1)N[C@@H](Cc1ccccc1)[C@H](O)[C@H](O)[C@H](Cc1ccccc1)NC(=O)Cc1ccccc1` [Compound 5], in assay [1], the “inhibition of HIV PR (in words)” value is given as “weak inhibitor of HIV PR”. Moreover, the inhibition at 10 µM in assay [1] (read-out: % inhib) was determined as 38%.

In the case of `O=C(Cc1cccc(O)c1)N[C@@H](Cc1ccccc1)[C@H](O)[C@H](O)[C@H](Cc1ccccc1)NC(=O)Cc1cccc(O)c1` [Compound 5a], the “inhibition of HIV PR (in words)” value in assay [1] was “small improvements in inhibition of HIV PR”. Further, the inhibition constant Ki in assay [1] (Table I, read-out: Ki) came out at 3000 nM.

For `O=C(Cc1ccccc1O)N[C@@H](Cc1ccccc1)[C@H](O)[C@H](O)[C@H](Cc1ccccc1)NC(=O)Cc1ccccc1O` [Compound 5b], the “inhibition of HIV PR (in words)” value in assay [1] is given as “small improvements in inhibition of HIV PR”. Moreover, the inhibition at 10 µM in assay [1] (read-out: % inhib) stood at 66%.

Take `O=C(N[C@@H](Cc1ccccc1)[C@@H](O)[C@H](O)[C@H](Cc1ccccc1)NC(=O)c1ccccc1)c1ccccc1` [Compound 6]: the inhibition at 10 µM in assay [1] (read-out: % inhib) came to 55%.

Take `O=C(N[C@@H](Cc1ccccc1)[C@H](O)[C@H](O)[C@H](Cc1ccccc1)NC(=O)c1cccc(O)c1)c1cccc(O)c1` [Compound 7, (2S,3R,4S,5S)-2,5-bis[((3-hydroxyphenyl)carbonyl)amino]-3,4-dihydroxy-1,6-diphenyl-hexane]: in assay [1], the “inhibition of HIV PR (in words)” value is “potent inhibitors of HIV PR”. Moreover, the inhibitory constant (Ki) worked out at 22 nM in assay [1] (Table II, read-out: Ki); 22 nM in assay [1] (setting [4]); 22 nM in assay [1] (read-out: Ki); 51 nM in assay [2]; 36 nM in assay [3]. For the same compound, the “relative potency, R,S vs R,R diol core (compounds 7 and 8)” value in assay [1] (in general, R,S core compared with R,R core) is recorded as “three times more potent”.

Consider `O=C(N[C@@H](Cc1ccccc1)[C@@H](O)[C@H](O)[C@H](Cc1ccccc1)NC(=O)c1cccc(O)c1)c1cccc(O)c1` [Compound 8], for which, in assay [1] (Table II, read-out: Ki), the inhibition constant Ki worked out at 79 nM.

As for `O=C(NC(Cc1ccccc1)C(O)C(O)C(Cc1ccccc1)NC(=O)c1cccc(O)c1)c1cccc(O)c1` (stereo not drawn) [Compound 9], the Ki in assay [1] (Table II, read-out: Ki) was 43 nM.

For `O=C(N[C@@H](Cc1ccccc1)[C@@H](O)[C@H](O)[C@H](Cc1ccccc1)NC(=O)c1ccc(O)cc1)c1ccc(O)cc1` [Compound 10], the Ki in assay [1] (Table II, read-out: Ki) was determined as 330 nM; in assay [1] (read-out: Ki), 330 nM.

On to `O=C(N[C@@H](Cc1ccccc1)[C@@H](O)[C@H](O)[C@H](Cc1ccccc1)NC(=O)c1ccccc1O)c1ccccc1O` [Compound 11], for which the “inhibition of HIV PR (in words)” value in assay [1] is “dramatic loss in enzyme inhibitory potency”. For the same compound, the inhibition at 10 µM in assay [1] (at 10 μM, read-out: % inhibition) turned out to be 66%; in assay [1] (read-out: % inhib), 66%.

Turning to `O=C(N[C@@H](Cc1ccccc1)[C@H](O)[C@H](O)[C@H](Cc1ccccc1)NC(=O)c1ccc(O)c(O)c1)c1ccc(O)c(O)c1` [Compound 12], the Ki amounted to 80 nM in assay [1] (Table II, unit nm [sic], read-out: Ki); 80 nM in assay [1] (setting [4]); 235 nM in assay [2]; 40 nM in assay [3].

In the case of `O=C(N[C@@H](Cc1ccccc1)[C@H](O)[C@H](O)[C@H](Cc1ccccc1)NC(=O)c1cc(O)cc(O)c1)c1cc(O)cc(O)c1` [Compound 13], the Ki in assay [1] (Table II, read-out: Ki) came out at 700 nM.

`Cc1cc(O)cc(C(=O)N[C@@H](Cc2ccccc2)[C@H](O)[C@H](O)[C@H](Cc2ccccc2)NC(=O)c2cc(C)cc(O)c2)c1` [Compound 14]: the inhibitory constant (Ki) in assay [1] (Table II, read-out: Ki) came out at 1000 nM.

Consider `Cc1ccc(O)cc1C(=O)N[C@@H](Cc1ccccc1)[C@H](O)[C@H](O)[C@H](Cc1ccccc1)NC(=O)c1cc(O)ccc1C` [Compound 15], for which the inhibition constant (Ki) in assay [1] (Table II, read-out: Ki) came out at 75 nM; in assay [1] (setting [4]), 75 nM; in assay [1] (read-out: Ki) it was 75 nM; in assay [2], 54 nM; in assay [3] it was 89 nM.

For `Cc1ccc(C(=O)N[C@@H](Cc2ccccc2)[C@H](O)[C@H](O)[C@H](Cc2ccccc2)NC(=O)c2ccc(C)c(O)c2)cc1O` [Compound 16], in assay [1] (Table II, read-out: Ki), the Ki is 132 nM.

On to `COCCOCCOc1cccc(C(=O)N[C@@H](Cc2ccccc2)[C@H](O)[C@H](O)[C@H](Cc2ccccc2)NC(=O)c2cccc(OCCOCCOC)c2)c1` [Compound 18], for which the inhibition at 10 µM in assay [1] (read-out: % inhib) came to 63%.

Regarding `O=C(N[C@@H](Cc1ccccc1)[C@H](O)[C@H](O)[C@H](Cc1ccccc1)NC(=O)c1cccc(OCCOc2ccccc2)c1)c1cccc(OCCOc2ccccc2)c1` [Compound 19], the inhibition at 10 µM in assay [1] (read-out: % inhib) was found to be 9%.

`O=C(N[C@@H](Cc1ccccc1)[C@H](O)[C@H](O)[C@H](Cc1ccccc1)NC(=O)c1cc(=O)c2ccccc2o1)c1cc(=O)c2ccccc2o1` [Compound 20]: the “inhibition of HIV PR (in words)” value in assay [1] is “diminished binding”. Also, the inhibition at 10 µM in assay [1] (read-out: % inhib) was 67%.

With `O=C(N[C@@H](Cc1ccccc1)[C@H](O)[C@H](O)[C@H](Cc1ccccc1)NC(=O)c1cc(O)c2ccccc2n1)c1cc(O)c2ccccc2n1` [Compound 21], in assay [1], the “inhibition of HIV PR (in words)” value is “diminished binding”. In addition, the inhibition at 10 µM in assay [1] (read-out: % inhib) came to 31%.

As for `O=C(N[C@@H](Cc1ccccc1)[C@H](O)[C@H](O)[C@H](Cc1ccccc1)NC(=O)c1cccc([N+](=O)[O-])c1)c1cccc([N+](=O)[O-])c1` [Compound 22], in assay [1] (read-out: % inhib), the inhibition at 10 µM came out at 40%.

Turning to `O=C(N[C@@H](Cc1ccccc1)[C@@H](O)[C@H](O)[C@H](Cc1ccccc1)NC(=O)c1cccnc1)c1cccnc1` [Compound 23], the inhibitory constant (Ki) in assay [1] (Table II, read-out: Ki) worked out at 400 nM.

Regarding `Nc1cccc(C(=O)N[C@@H](Cc2ccccc2)C[C@H](O)[C@H](Cc2ccccc2)NC(=O)c2cccc(N)c2)c1` [Compound 25], the “inhibition of HIV PR (in words)” value in assay [1] was “did not improve the inhibitory potencies”. The Ki in assay [1] (Table II, read-out: Ki) was found to be 6 nM.

Take `CC(=O)Nc1ccccc1C(=O)N[C@@H](Cc1ccccc1)[C@H](O)[C@H](O)[C@H](Cc1ccccc1)NC(=O)c1ccccc1NC(C)=O` [Compound 26]: the Ki in assay [1] (Table IV, read-out: Ki) turned out to be 41 nM; in assay [1] (read-out: Ki), 41 nM.

As to `CCOC(=O)Nc1ccccc1C(=O)N[C@@H](Cc1ccccc1)[C@H](O)[C@H](O)[C@H](Cc1ccccc1)NC(=O)c1ccccc1NC(=O)OCC` [Compound 28], in assay [1] (Table IV, @ 10 μM, read-out: % inhibition), the inhibition at 10 µM was found to be 41%.

With `O=C(CO)Nc1ccccc1C(=O)N[C@@H](Cc1ccccc1)[C@H](O)[C@H](O)[C@H](Cc1ccccc1)NC(=O)c1ccccc1NC(=O)CO` [Compound 29], the Ki in assay [1] (Table IV, read-out: Ki) was found to be 41 nM.

In the case of `O=C(Nc1ncccc1C(=O)N[C@@H](Cc1ccccc1)[C@H](O)[C@H](O)[C@H](Cc1ccccc1)NC(=O)c1cccnc1NC(=O)OCc1ccccc1)OCc1ccccc1` [Compound 30], the Ki in assay [1] (Table IV, read-out: Ki) was found to be 3 nM.

Turning to `Cc1cccc(C(=O)N[C@@H](Cc2ccccc2)[C@H](O)[C@H](O)[C@H](Cc2ccccc2)NC(=O)c2cccc(C)c2NC(=O)OCc2ccccc2)c1NC(=O)OCc1ccccc1` [Compound 31], the inhibition constant Ki in assay [1] (Table IV, read-out: Ki) is 12 nM.

For the compound `O=C(Nc1c(Cl)cccc1C(=O)N[C@@H](Cc1ccccc1)[C@H](O)[C@H](O)[C@H](Cc1ccccc1)NC(=O)c1cccc(Cl)c1NC(=O)OCc1ccccc1)OCc1ccccc1` [Compound 32], the inhibition constant (Ki) in assay [1] (Table IV, read-out: Ki) stood at 91 nM.

Take `O=C(Nc1c(O)cccc1C(=O)N[C@@H](Cc1ccccc1)[C@H](O)[C@H](O)[C@H](Cc1ccccc1)NC(=O)c1cccc(O)c1NC(=O)OCc1ccccc1)OCc1ccccc1` [Compound 33]: the inhibition constant Ki in assay [1] (Table IV, read-out: Ki) is 20 nM.

Turning to `O=C(Nc1ccccc1C(=O)N[C@@H](Cc1ccccc1)C[C@H](O)[C@H](Cc1ccccc1)NC(=O)c1ccccc1NC(=O)OCc1ccccc1)OCc1ccccc1` [Compound 35], the Ki in assay [1] (Table IV, read-out: Ki) was found to be 1.2 nM.

Take `O=C(N[C@@H](Cc1ccccc1)[C@H](O)[C@H](O)[C@H](Cc1ccccc1)NC(=O)c1cccc(O)c1)OCc1ccccc1` [DN-1]: the Ki in assay [1] (setting [5]) worked out at 11.9 nM.

For the compound `O=C(Nc1ccccc1C(=O)N[C@@H](Cc1ccccc1)[C@H](O)[C@H](O)[C@H](Cc1ccccc1)NC(=O)c1cccc(O)c1)OCc1ccccn1` [DN-4], in assay [1] (setting [5]), the Ki amounted to 1.7 nM.

Regarding `CC(C)(C)OC(=O)Nc1ccc(C(=O)N[C@@H](Cc2ccccc2)[C@@H](O)[C@@H](O)[C@H](Cc2ccccc2)NC(=O)OCc2ccccc2)cc1` [DN-5], in assay [1] (setting [5]), the inhibition constant Ki was found to be 15.8 nM.

On to `Nc1ccc(C(=O)N[C@@H](Cc2ccccc2)[C@@H](O)[C@@H](O)[C@H](Cc2ccccc2)NC(=O)c2ccccc2NC(=O)OCc2ccccn2)cc1` [DN-6B], for which, in assay [1] (setting [5]), the inhibition constant (Ki) is 6.6 nM.

Take `CC(C)(C)OC(=O)Nc1ccc(C(=O)N[C@@H](Cc2ccccc2)[C@@H](O)[C@@H](O)[C@H](Cc2ccccc2)NC(=O)c2ccccc2NC(=O)OCc2ccccn2)cc1` [DN-6]: the inhibition at 1 µM in assay [1] (Table V, @ 1 μM, read-out: % inhibition (printed after % Inhib. Conc.)) was determined as 15%. Further, in assay [1] (Table V, @ 10 NM (so in the source)), the “% Inhib. Conc.” value is on record as 40%.

For the compound `CC(C)(C)OC(=O)N[C@@H](Cc1ccccc1)[C@@H](O)[C@@H](O)[C@H](Cc1ccccc1)NC(=O)OCc1ccccc1` [DN-10], the inhibition constant (Ki) in assay [1] (setting [5]) came out at 3.09 nM.

As to `O=C(Nc1ccccc1C(=O)N[C@@H](Cc1ccccc1)[C@@H](O)[C@@H](O)[C@H](Cc1ccccc1)NC(=O)c1cccc(O)c1)OCc1ccccn1` [ND-4], the Ki in assay [1] (setting [5]) was 0.7 nM.
